Measurements from patent US8952030B2, “Morphinan derivative” (priority 2011, dated 2015).
Read-outs that look alike come from different tables or passages of the source.

Legend:
Format in all cases: cell-based
opioid δ receptor = molecular target: T1, opioid δ receptor (Homo sapiens, UniProt P41143); assay: Opioid receptor functional test (Lance Ultra cAMP Kit), δ receptor agonist activity; settings: for Emax: read-out: δ Receptor Emax
T1 construct: expressed in transfected cells; host or cells: CHO cells
T1 sequence (P41143 whole entry): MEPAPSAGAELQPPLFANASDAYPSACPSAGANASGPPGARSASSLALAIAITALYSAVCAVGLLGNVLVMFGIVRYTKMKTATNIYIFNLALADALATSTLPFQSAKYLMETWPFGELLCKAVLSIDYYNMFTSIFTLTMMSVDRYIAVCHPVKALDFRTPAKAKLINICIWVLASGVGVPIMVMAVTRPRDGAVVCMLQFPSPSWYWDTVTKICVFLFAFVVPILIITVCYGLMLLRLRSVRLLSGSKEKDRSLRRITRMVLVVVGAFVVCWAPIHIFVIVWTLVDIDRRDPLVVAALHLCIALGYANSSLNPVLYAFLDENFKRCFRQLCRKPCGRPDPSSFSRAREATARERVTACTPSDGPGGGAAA
Protocol: (§1) Functional activities of the compounds of the present invention for the μ, […], and κ opioid receptors were investigated.
(§2) The test was performed according to a prescribed method by using Lance Ultra cAMP Kit (Perkin-Elmer). The agonist activities were evaluated as follows. The CHO cells expressing each opioid receptor (μ, δ, or κ) and a test compound were reacted in an assay buffer (1×HBSS, […], pH 7.4, […] IBMX (isobutylmethylxanthine), 7.5% BSA) for 30 minutes in the presence of 10 μM forskolin. Then, the cAMP detection reagent included in the kit was added, and after 1 hour, time-resolved fluorescence measurements were performed by using the EnVision plate reader (Perkin-Elmer). A dose-responce curve of the test compound was obtained from fluorescence values measured at 665 nm, and EC50 value and Emax value were calculated. The Emax value was calculated as a ratio of the maximum responce of the test compound with respect to the maximum responce of each control agent (SNC80 for δ, DAMGO for μ, U-69593 for κ) taken as 100%.
(§3) 1): Hydrochloride was used.

opioid μ receptor = molecular target: T2, opioid μ receptor (Homo sapiens, UniProt P35372); assay: Opioid receptor functional test (Lance Ultra cAMP Kit), μ receptor agonist activity; settings: for EC50: CHO cells expressing μ opioid receptor, 10 μM forskolin, cAMP; for Emax at 10 µM: maximum concentration (10 μM), reaction did not reach the maximum, EC50 N.C., relative to DAMGO
T2 construct: expressed in transfected cells; host or cells: CHO cells
T2 sequence (P35372 whole entry): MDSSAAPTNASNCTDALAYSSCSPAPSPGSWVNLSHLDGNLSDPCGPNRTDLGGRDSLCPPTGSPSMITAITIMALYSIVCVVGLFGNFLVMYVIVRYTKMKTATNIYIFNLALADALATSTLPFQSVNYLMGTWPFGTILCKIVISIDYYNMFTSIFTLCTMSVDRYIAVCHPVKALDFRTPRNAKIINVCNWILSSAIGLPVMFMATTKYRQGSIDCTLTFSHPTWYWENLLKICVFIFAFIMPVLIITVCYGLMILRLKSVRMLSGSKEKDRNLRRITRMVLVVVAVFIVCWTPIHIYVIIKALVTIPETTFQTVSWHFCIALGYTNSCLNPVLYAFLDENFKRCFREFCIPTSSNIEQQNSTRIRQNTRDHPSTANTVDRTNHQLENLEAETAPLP
Protocol: as §1, §2, §3

opioid κ receptor = molecular target: T3, opioid κ receptor (Homo sapiens, UniProt P41145); assay: Opioid receptor functional test (Lance Ultra cAMP Kit), κ receptor agonist activity; settings: for Emax at 10 µM: maximum concentration (10 μM), reaction did not reach the maximum, EC50 N.C., relative to U-69593
T3 construct: expressed in transfected cells; host or cells: CHO cells
T3 sequence (P41145 whole entry): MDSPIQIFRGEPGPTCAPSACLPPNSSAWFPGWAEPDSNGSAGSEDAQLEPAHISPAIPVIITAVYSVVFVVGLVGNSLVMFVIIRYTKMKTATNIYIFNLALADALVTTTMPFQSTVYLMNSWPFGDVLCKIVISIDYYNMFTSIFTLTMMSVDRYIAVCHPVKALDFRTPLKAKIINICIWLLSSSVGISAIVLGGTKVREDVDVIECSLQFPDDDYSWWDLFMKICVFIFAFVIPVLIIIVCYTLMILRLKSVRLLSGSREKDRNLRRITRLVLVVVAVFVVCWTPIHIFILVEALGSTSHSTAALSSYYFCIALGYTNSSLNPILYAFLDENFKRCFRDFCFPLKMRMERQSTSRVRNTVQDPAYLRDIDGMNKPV
Protocol: as §1, §2, §3

[1] = CHO cells expressing δ opioid receptor, 10 μM forskolin, cAMP, hydrochloride was used, read-out: δ Receptor EC50 value
[2] = maximum response relative to SNC80 taken as 100%, hydrochloride was used
[3] = read-out: μ Receptor responce rate at the maximum concentration (reference value)
[4] = maximum response relative to DAMGO taken as 100%, hydrochloride was used, read-out: μ Receptor Emax
[5] = hydrochloride was used, read-out: κ Receptor responce rate at the maximum concentration (reference value)
[6] = hydrochloride was used, read-out: μ Receptor responce rate at the maximum concentration (reference value)
[7] = CHO cells expressing κ opioid receptor, 10 μM forskolin, cAMP, hydrochloride was used, read-out: κ Receptor EC50 value
[8] = maximum response relative to U-69593 taken as 100%, hydrochloride was used, read-out: κ Receptor Emax

Row | SMILES | EC50 (opioid δ receptor; [1]) [µM] | Emax (opioid δ receptor; [2]) [%] | Emax (opioid μ receptor; [3]) [%] | Emax (opioid κ receptor; read-out: κ Receptor responce rate at the maximum concentration (reference value)) [%] | EC50 (opioid μ receptor; hydrochloride was used) [µM] | Emax (opioid μ receptor; [4]) [%] | EC50 (opioid κ receptor) [µM] | Emax (opioid κ receptor; read-out: κ Receptor Emax) [%] | Emax at 10 µM (opioid κ receptor; [5]) [%] | Emax at 10 µM (opioid μ receptor; [6]) [%] | EC50 (opioid κ receptor; [7]) [µM] | Emax (opioid κ receptor; [8]) [%] | EC50 (opioid δ receptor) [µM] | Emax (opioid δ receptor) [%]
1 | O=C(c1ccccc1)N1C[C@H]2O[C@@]34CC[C@@H]1[C@@H]2[C@@]31CCN(CC2CC2)[C@@H]4Cc2ccc(O)cc21 [Compound 10, [(1S,3aR,5aS,6R,11bR,11cS)-14-(cyclopropylmethyl)-10-hydroxy-1,2,3a,4,5,6,7,11c-octahydro-3H-6,11b-(iminoethano)-1,5a-epoxynaphtho[1,2-e]indol-3-yl](phenyl)methanone] | < 0.001 | 127 | 3.9 | 2.9 | – | – | – | – | – | – | – | – | – | –
2 | CN1CC[C@@]23c4cc(O)ccc4C[C@@H]1[C@]21CC[C@@H]2[C@H]3[C@@H](CN2C(=O)c2ccccc2)O1 [Compound 12, [(1S,3aR,5aS,6R,11bR,11cS)-10-hydroxy-14-methyl-1,2,3a,4,5,6,7,11c-octahydro-3H-6,11b-(iminoethano)-1,5a-epoxynaphtho[1,2-e]indol-3-yl](phenyl)methanone] | < 0.001 | 94 | – | – | > 0.001 | 103 | > 0.01 | 96 | – | – | – | – | – | –
3 | O=C(c1ccccc1)N1C[C@H]2O[C@@]34CC[C@@H]1[C@@H]2[C@@]31CCN(CCO)[C@@H]4Cc2ccc(O)cc21 [Compound 27, [(1S,3aR,5aS,6R,11bR,11cS)-10-hydroxy-14-(2-hydroxyethyl)-1,2,3a,4,5,6,7,11c-octahydro-3H-6,11b-(iminoethano)-1,5a-epoxynaphtho[1,2-e]indol-3-yl](phenyl)methanone] | < 0.01 | 95 | – | – | > 0.05 | 34 | – | – | 33 | – | – | – | – | –
4 | Oc1ccc2c(c1)[C@]13CCN(CC4CC4)[C@H](C2)[C@]12CC[C@@H]1[C@H]3[C@@H](CN1c1ccccc1)O2 [Compound 31, (1S,3aR,5aS,6R,11bR,11cS)-14-(cyclopropylmethyl)-3-phenyl-2,3,3a,4,5,6,7,11c-octahydro-1H-6,11b-(iminoethano)-1,5a-epoxynaphtho[1,2-e]indol-10-ol] | < 0.01 | 46 | – | – | – | – | – | – | – | 14 | > 0.001 | 23 | – | –
5 | O=C(c1ccco1)N1C[C@H]2O[C@@]34CC[C@@H]1[C@@H]2[C@@]31CCN(CC2CC2)[C@@H]4Cc2ccc(O)cc21 [Compound 50, [(1S,3aR,5aS,6R,11bR,11cS)-14-cyclopropylmethyl-10-hydroxy-1,2,3a,4,5,6,7,11c-octahydro-3H-6,11b-(iminoethano)-1,5a-epoxynaphtho[1,2-e]indol-3-yl](2-furyl)methanone] | < 0.001 | 82 | – | – | – | – | – | – | 12 | 5.4 | – | – | – | –
6 | O=C(/C=C/c1ccccc1)N1C[C@H]2OC34CCC1C2C31CCN(CC2CC2)C4Cc2ccc(O)cc21 (stereo partly drawn) [Compound 57, (2E)-1-[(1S,3aR,5aS,6R,11bR,11cS)-14-(cyclopropylmethyl)-10-hydroxy-1,2,3a,4,5,6,7,11c-octahydro-3H-6,11b-(iminoethano)-1,5a-epoxynaphtho[1,2-e]indol-3-yl]-3-phenylpropenone] | < 0.01 | 63 | – | – | – | – | – | – | 25 | 3 | – | – | – | –
7 | O=S(=O)(c1ccccc1)N1C[C@H]2O[C@@]34CC[C@@H]1[C@@H]2[C@@]31CCN(CC2CC2)[C@@H]4Cc2ccc(O)cc21 [Compound 58, (1S,3aR,5aS,6R,11bR,11cS)-3-benzenesulfonyl-14-(cyclopropylmethyl)-2,3,3a,4,5,6,7,11c-octahydro-1H-6,11b-(iminoethano)-1,5a-epoxynaphtho[1,2-e]indol-10-ol] | – | – | – | – | > 0.001 | 54 | – | – | 19 | – | – | – | < 0.01 | 66
8 | O=C(c1ccccc1)N1C[C@H]2O[C@@]34CC[C@@H]1[C@@H]2[C@@]31CCN(CC2CC2)[C@@H]4Cc2cccc(O)c21 [Compound 68, [(1S,3aR,5aS,6R,11bR,11cS)-14-(cyclopropylmethyl)-11-hydroxy-1,2,3a,4,5,6,7,11c-octahydro-3H-6,11b-(iminoethano)-1,5a-epoxynaphtho[1,2-e]indol-3-yl](phenyl)methanone] | < 0.01 | 90 | – | – | > 0.1 | 56 | – | – | – | – | > 0.1 | 99 | – | –
9 | CCCN1CC[C@@]23c4cc(O)ccc4C[C@@H]1[C@]21CC[C@@H]2[C@H]3[C@@H](CN2C(=O)c2ccccc2)C1 [Compound 83, [(1S,3aR,5aS,6R,11bR,11cS)-10-hydroxy-14-propyl-1,2,3a,4,5,6,7,11c-octahydro-3H-6,11b-(iminoethano)-1,5a-methanonaphtho[1,2-e]indol-3-yl](phenyl)methanone] | < 0.001 | 99 | – | – | – | – | – | – | 2.1 | 7.9 | – | – | – | –
10 | O=C(c1ccccc1)N1C[C@H]2C[C@@]34CC[C@@H]1[C@@H]2[C@@]31CCN(CCF)[C@@H]4Cc2ccc(O)cc21 [Compound 84, [(1S,3aR,5aS,6R,11bR,11cS)-14-(2-fluoroethyl)-10-hydroxy-1,2,3a,4,5,6,7,11c-octahydro-3H-6,11b-(iminoethano)-1,5a-methanonaphtho[1,2-e]indol-3-yl](phenyl)methanone] | < 0.01 | 99 | – | – | – | – | – | – | 5.9 | 20 | – | – | – | –
11 | CC(C)N(Cc1ccccc1)C(=O)N1C[C@H]2C[C@@]34CCC1C2[C@@]31CCN(CC2CC2)[C@@H]4Cc2ccc(O)cc21 (stereo partly drawn) [Compound 155, (1S,5aS,6R,11bR)—N-benzyl-14-(cyclopropylmethyl)-10-hydroxy-N-isopropyl-3a,4,5,6,7,11c-hexahydro-1H-6,11b-(iminoethano)-1,5a-methanonaphtho[1,2-e]indole-3(2H)-carboxamide] | < 0.001 | 91 | – | – | – | – | – | – | – | 3 | > 0.001 | 47 | – | –
12 | O=C(N1CCCCC1)N1C[C@H]2CC34CCC1C2C31CCN(CC2CC2)C4Cc2ccc(O)cc21 (stereo partly drawn) [Compound 167] | < 0.001 | 96 | – | – | – | – | – | – | – | 4.6 | > 0.001 | 22 | – | –
13 | O=C(Oc1ccccc1)N1C[C@H]2CC34CCC1C2C31CCN(CC2CC2)C4Cc2ccc(O)cc21 (stereo partly drawn) [Compound 195] | – | – | 5.6 | – | – | – | > 0.001 | 27 | – | – | – | – | < 0.01 | 92
14 | CC(C)COC(=O)N1C[C@H]2CC34CCC1C2C31CCN(CC2CC2)C4Cc2ccc(O)cc21 (stereo partly drawn) [Compound 196] | < 0.01 | 67 | – | – | – | – | – | – | – | 7.6 | > 0.001 | 12 | – | –
15 | Oc1ccc2c(c1)[C@]13CCN(CC4CC4)[C@H](C2)[C@]12CCC1C3[C@@H](CN1c1ccccn1)C2 (stereo partly drawn) [Compound 221, (1S,5aS,6R,11bR)-14-(cyclopropylmethyl)-3-(pyridin-2-yl)-2,3,3a,4,5,6,7,11c-octahydro-1H-6,11b-(iminoethano)-1,5a-methanonaphtho[1,2-e]indol-10-ol] | < 0.001 | 90 | – | – | > 0.001 | 30 | – | – | – | – | > 0.001 | 42 | – | –
16 | COc1ccc2c(c1)[C@]13CCN(CC4CC4)[C@H](C2)[C@]12CCC1C3[C@@H](CN1c1nc(C)cc(C)n1)C2 (stereo partly drawn) [Compound 222, (1S,5aS,6R,11bR)-14-(cyclopropylmethyl)-3-(4,6-dimethylpyrimidin-2-yl)-10-methoxy-2,3,3a,4,5,6,7,11c-octahydro-1H-6,11b-(iminoethano)-1,5a-methanonaphtho[1,2-e]indole] | < 0.01 | 105 | – | – | > 0.1 | 52 | – | – | 43 | – | – | – | – | –
17 | Oc1ccc2c(c1)C13CCN(CC4CC4)C(C2)C12CCC1C3[C@@H](CN1c1nccs1)C2 (stereo partly drawn) [Compound 241] | < 0.01 | 81 | – | – | – | – | – | – | – | 11 | > 0.001 | 33 | – | –
18 | Oc1ccc2c(c1)C13CCN(CC4CC4)C(C2)C12CCC1C3[C@@H](CN1c1nc(-c3ccccc3)cs1)C2 (stereo partly drawn) [Compound 242] | < 0.05 | 68 | – | – | – | – | – | – | – | 9.2 | > 0.01 | 47 | – | –
19 | Cc1cc(C)nc(N2C[C@H]3CC45CCC2C3C42CCN(CC(F)(F)c3ccccc3)C5Cc3ccc(O)cc32)n1 (stereo partly drawn) [Compound 283] | < 0.05 | 91 | – | – | > 0.5 | 101 | – | – | 11 | – | – | – | – | –
20 | Cc1cc(C)nc(N2C[C@H]3CC45CCC2C3C42CCN(C[C@H](C)O)C5Cc3ccc(O)cc32)n1 (stereo partly drawn) [Compound 285] | < 0.01 | 81 | – | – | > 0.01 | 48 | – | – | – | – | > 0.1 | 78 | – | –
